# Read-outs that look alike come from different tables or passages of the source.
# Columns and labels:
# [1] = tested on: E. coli ATCC 8739; assay: Disk diffusion; format: cell-based
# Experimental: (§1) The following bacterial strains were used; S. aureus ATCC 29350, E. coli ATCC 8739, and P. aeruginosa ATCC 27853. The cultivation medium for P. aeruginosa and E. coli were tryptone soy Agar (Oxoid, UK), and, 5% defibrinated sheep blood added to columbia blood agar base (Oxoid, UK). The bacterial cultures were aerobically grown at 37° C. for 24 hrs. For antimicrobial testing, the bacterial cultures were prepared by picking colonies from logarithmic phase of growth and suspended in 5 ml of Mueller Hinton broth with suitable supplements. The bacterium inoculum sizes were adjusted to 10^8 CFU/ml for all strains.
# (§2) solutions of 2-(bromoacetamido)phenylboronic acid were prepared by gradually dissolving 2-(bromoacetamido)phenylboronic acid to the maximum solubility in 100% DMSO (1 mg/ml). Similarly standard stock solution of Vancomycin and Penicillin (1 mg/ml) were used as positive controls.
# (§3) For the disk diffusion assay, bacterial suspensions were prepared to the standard McFarland's (0.5) and subsequently uniformly spread on a solid growth medium in a Petri dish. Sterile paper disks (6 mm in diameter; oxoid, UK) were placed on the surface of each agar plate and were impregnated with 30 μL to a final concentration of 600 ug/ml of each agent to be tested. The plates were incubated for the recommended time periods (18-24 hrs) under appropriate cultivation conditions. Antibacterial activity was determined by measuring an inhibition zone around a disk following the incubation. Disks impregnated with sterile distilled water, DMSO served as negative controls and disks with standard antibiotics Vancomycin and penicillin (Oxoid, UK) served as positive controls. Triplicates at each concentration were performed and the average of the results was taken.
# [2] = tested on: P. aerugionsa ATCC 27853; assay: Disk diffusion; format: cell-based; settings: P. aeruginosa ATCC 27853
# Experimental: as §1, §2, §3
# [3] = tested on: P. aerugionsa ATCC 27853; assay: Broth microdilution MIC determination; format: cell-based, P. aeruginosa; settings: for MIC: Pseudomonas aeruginosa
# Experimental: as §1, §2
# For the broth microdilution test, 100 μL of each bacterial suspension in suitable growth medium was added to the wells of a sterile 96-well microtitre plate already containing 100 μL of two-fold serially diluted 2-(bromoacetamido)phenylboronic acid or vancomycin and penicillin in proper growth medium. The final volume in each well was 200 μL. Control wells were prepared with culture medium, bacterial suspension only compound only and DMSO in amounts corresponding to the highest quantity present. […] To indicate cell viability, the presence of a purple color was determined after adding 20 μL/well of 500 ug/ml MTT (3-(4,5-Dimethylthiazol-2-yl-2,5-diphenyltetrazolium bromide, Sigma) and incubated under appropriate cultivation conditions (37° C. for 3 hrs). To determine the formation of formazan by living cells, OD570 was measured by a Microplate Reader (Thermoscientific, Finland) after adding 200 μL/well of a solubilizing solution (a mixture of DMSO:ethanol (1:1)). Positive controls were wells with a bacterial suspension in an appropriate growth medium. Negative controls were wells with growth medium and antimicrobial compound. […]
# [4] = tested on: MRSA clinical strain; assay: Broth microdilution MIC determination; format: cell-based, methicillin resistant S. aureus; settings: for MIC: Staphylococcus aureus, 24 h
# [5] = tested on: MRSA clinical strain; assay: Disk diffusion; format: cell-based, methicillin resistant S. aureus
# [6] = tested on: S. aureus ATCC 2592; assay: Disk diffusion; format: cell-based
# [7] = tested on: E. coli ATCC 8739; assay: Broth microdilution MIC determination; format: cell-based
# Experimental: as §1, §2
# For the broth microdilution test, 100 μL of each bacterial suspension in suitable growth medium was added to the wells of a sterile 96-well microtitre plate already containing 100 μL of two-fold serially diluted 2-(bromoacetamido)phenylboronic acid or vancomycin and penicillin in proper growth medium. The final volume in each well was 200 μL. Control wells were prepared with culture medium, bacterial suspension only compound only and DMSO in amounts corresponding to the highest quantity present. […]
# [8] = tested on: S. aureus ATCC 2592; assay: Broth microdilution MIC determination; format: cell-based; settings: Staphylococcus aureus, ATCC2592, 24 h, MTT readout
# [9] = Single dose acute toxicity study and LD50 determination; format: in vivo, mice; settings: mouse, in vivo; acute oral, dissolved in DMSO, BALB/c mice; curve generated
# Experimental: (§4) Results of Acute Toxicity of 2-(bromoacetamido)phenylboronic Acid in Balb/c Mice
# (§5) • a. […] This effect started 30 minutes post treatment. The activity was recovered after 3 hours post treatment (for survived animals). […] The time of deaths was observed as dose dependent. Mice treated with 150 mg/kg died within 18 hours of 2-(bromoacetamido)phenylboronic acid administration while mice treated with 200 mg/kg died within 4 hours post treatment. • e.
# [10] = tested on: Balb/c Mice; assay: as above; format: in vivo
# Experimental: as §4, §5
# [11] = Maximum solubility in DMSO (stock solution); format: physicochemical; settings: 100% DMSO, organic solvent or mixture, thermodynamic from solid
# Experimental: as §2
compound,measurement,setting,value
"CC1(C)S[C@@H]2[C@H](NC(=O)[C@H](N)c3ccccc3)C(=O)N2[C@H]1C(=O)O [Ampicillin, reference compound]",Susceptibility category (S/R) beside zone of inhibition,[1],S
same,Susceptibility category (S/R) beside zone of inhibition,[2],R
same,MIC,"[3]; ATCC27853, 24 h",150 µg/mL
"CN[C@H](CC(C)C)C(=O)N[C@H]1C(=O)N[C@@H](CC(N)=O)C(=O)N[C@H]2C(=O)N[C@H]3C(=O)N[C@H](C(=O)N[C@H](C(=O)O)c4cc(O)cc(O)c4-c4cc3ccc4O)[C@H](O)c3ccc(c(Cl)c3)Oc3cc2cc(c3O[C@@H]2O[C@H](CO)[C@@H](O)[C@H](O)[C@H]2O[C@H]2C[C@](C)(N)[C@H](O)[C@H](C)O2)Oc2ccc(cc2Cl)[C@H]1O [Vancomycin, reference compound]",MIC,[4]; MRSA,0.4 µg/mL
same,Susceptibility category (S/R) beside zone of inhibition,[5],S
same,Susceptibility category (S/R) beside zone of inhibition,[6],S
O=C(CBr)Nc1ccccc1B(O)O [2-(bromoacetamido)phenylboronic acid],Growth inhibition (statement in words),"[4]; MRSA, general statement of the description, method not named",inhibits the growth
same,MIC,"[4]; MRSA clinical strain, MTT readout, read-out: MIC",1.56 µg/mL
same,zone of inhibition at 600 µg/mL,"[6]; Staphylococcus aureus, ATCC2592, agent concentration as in row label (vancomycin 100 μg/ml, compound 600 μg/ml)",24 mm
same,Growth inhibition (statement in words),"[7]; E. coli, general statement of the description, method not named",inhibits the growth
same,MIC,"[7]; Escherichia coli, ATCC8739, E. coli ATCC 8739, 24 h, MTT readout",75 µg/mL
same,MIC,[8],1.56 µg/mL
same,zone of inhibition at 600 µg/mL,"[1]; Escherichia coli, ATCC8739, agent concentration as in row label (ampicillin 20 mg/ml, compound 600 μg/ml)",16 mm
same,Growth inhibition (statement in words),"[3]; P. aeruginosa, general statement of the description, method not named",inhibits the growth
same,MIC,"[3]; ATCC27853, P. aeruginosa ATCC 27853, 24 h, MTT readout, read-out: MIC",> 600 µg/mL
same,LD50 at 14 days,[9],~130 mg/kg
same,% Death/group,[10]; 10 mg/kg single oral dose in DMSO,0%
same,% Death/group,[10]; 50 mg/kg single oral dose in DMSO,0%
same,% Death/group,[10]; 100 mg/kg single oral dose in DMSO,0%
same,Time of death after administration,[10]; 150 mg/kg,≤ 18 h
same,% Death/group,[10]; 150 mg/kg single oral dose in DMSO,70%
same,Time of death after administration,[10]; 200 mg/kg,≤ 4 h
same,% Death/group,[10]; 200 mg/kg single oral dose in DMSO,70%
same,Behaviour and clinical signs post administration,"[10]; 10, 50 and 100 mg/kg",behaved normally
same,Behaviour and clinical signs post administration,[10]; 150 and 200 mg/kg,Reduced activity
same,Start of reduced activity post treatment,[10]; 150 and 200 mg/kg,30 min
same,Recovery of activity post treatment,"[10]; 150 and 200 mg/kg, survived animals",3 h
same,Doses showing systemic toxicity and causing death,"[10]; acute oral, dissolved in DMSO, BALB/c mice",above 100 mg/kg
same,Change in body weights,[10]; all groups,No significant change
same,Gross autopsy,[10]; dead mice and all survivors at day 14,did not reveal any significant findings
same,% Death/gender,"[10]; females, 10 mg/kg single oral dose in DMSO",0%
same,% Death/gender,"[10]; females, 50 mg/kg single oral dose in DMSO",0%
same,% Death/gender,"[10]; females, 100 mg/kg single oral dose in DMSO",0%
same,% Death/gender,"[10]; females, 150 mg/kg single oral dose in DMSO",100%
same,% Death/gender,"[10]; males, 10 mg/kg single oral dose in DMSO",0%
same,% Death/gender,"[10]; males, 50 mg/kg single oral dose in DMSO",0%
same,% Death/gender,"[10]; males, 100 mg/kg single oral dose in DMSO",0%
same,% Death/gender,"[10]; males, 150 mg/kg single oral dose in DMSO",40%
same,% Death/gender,"[10]; males, 200 mg/kg single oral dose in DMSO",80%
same,solubility,[11],1000 µg/mL

# Reference: patent US8877980B2, “Phenylboronic acid” (Al-Urdonia Lemudaddat Al-Ajsam Co., priority 2012, dated 2014)
